Experimental data as given in ChEMBL document CHEMBL1909638, “Amide isosteres in structure-activity studies of antibacterial minor groove binders” (2011).
Converted amounts (≈) assume the structure as drawn.

Key:
[1] = system: Staphylococcus aureus; assay: Antibacterial activity against Staphylococcus aureus isolate 1 by resazurine microtiter assay; assay type: functional
[2] = system: Nucleic Acid; assay: Binding affinity to 5'-GCGATATATGCG-3' DNA sequence in PBS buffer of pH 7.4 assessed as change in melting temperature by UV-VIS spectrophotometric analysis; assay type: nucleic-acid assay
[3] = system: Staphylococcus aureus; assay: Antibacterial activity against Staphylococcus aureus isolate 2 by resazurine microtiter assay; assay type: functional
[4] = system: Enterococcus faecalis; assay: Antibacterial activity against Streptococcus faecalis by resazurine microtiter assay; assay type: functional
[5] = system: Aspergillus niger; assay: Antifungal activity against Aspergillus niger by resazurine microtiter assay; assay type: functional
[6] = system: Candida albicans; assay: Antifungal activity against Candida albicans by resazurine microtiter assay; assay type: functional
[7] = system: Staphylococcus aureus; assay: Antibacterial activity against Staphylococcus aureus at 200 uM by resazurine microtiter assay; assay type: functional; parameters: scale not given here
[8] = system: Nucleic Acid; assay: Binding affinity to 5'-GCGATATATGCG-3' DNA sequence in PBS buffer of pH 7.4 assessed as increase in melting temperature by UV-VIS spectrophotometric analysis; assay type: nucleic-acid assay
[9] = system: Staphylococcus aureus; assay: Antibacterial activity against Staphylococcus aureus by resazurine microtiter assay; assay type: functional
[10] = system: Mycolicibacterium aurum; assay: Antimycobacterial activity against Mycobacterium aurum at 37 degC using Mueller-Hinton broth by resazurine microtiter assay; assay type: functional

ΔTm [2] [°C]	ΔTm [8] [°C]	MIC [9] [µM]	MIC [10] [µM]	SMILES	Activity [7] [%]	further results
2				CN(C)c1ccc(/C=C/c2ccc(C(=O)Nc3cc(C(=O)Nc4cc(C(=O)NCCN5CCOCC5)n(C)c4)n(C)c3)cc2)cc1		MIC [1]: > 100 µM; MIC [3]: > 100 µM; MIC [4]: > 100 µM; MIC [5]: > 100 µM; MIC [6]: 100 µM (≈ 62.4 µg/mL)
1				COc1cccc(/N=N/c2ccc(C(=O)Nc3cc(C(=O)Nc4cc(C(=O)NCCN5CCOCC5)n(C)c4)n(C)c3)cc2)c1		
18				CN(C)c1ccc(C(=O)Nc2ccc(C(=O)Nc3cc(C(=O)Nc4cc(C(=O)NCCN5CCOCC5)n(C)c4)n(C)c3)cc2)cc1		
17				Cn1cc(NC(=O)c2cc(NC(=O)c3ccc(NC(=O)c4cnc5ccccc5c4)cc3)cn2C)cc1C(=O)NCCN1CCOCC1		
17				Cn1cc(NC(=O)c2cc(NC(=O)c3ccc(/N=N/c4cnc5ccccc5c4)cc3)cn2C)cc1C(=O)NCCN1CCOCC1		MIC [1]: > 100 µM; MIC [3]: > 100 µM; MIC [4]: > 100 µM; MIC [5]: 50 µM (≈ 31.7 µg/mL); MIC [6]: 25 µM (≈ 15.8 µg/mL)
	0			CCC(C)n1cc(NC(=O)c2cc(NC(=O)c3ccc(/C=C/c4cnc5ccccc5c4)cc3)cn2C)cc1C(=O)NCCN1CCOCC1 (stereo not given)	0.3	
18	19			Cn1cc(NC(=O)c2cc(NC(=O)c3ccc(/C=C/c4cnc5ccccc5c4)cc3)cn2C)cc1C(=O)NCCN1CCOCC1 [MGB-BP-3]		MIC [1]: 3.1 µM (≈ 1.96 µg/mL); MIC [3]: 12.5 µM (≈ 7.9 µg/mL); MIC [4]: 25 µM (≈ 15.8 µg/mL); MIC [5]: 50 µM (≈ 31.6 µg/mL); MIC [6]: 25 µM (≈ 15.8 µg/mL)
	18	< 1	2 (≈ 1.32 µg/mL)	CC(C)n1cc(NC(=O)c2ccc(/C=C/c3cnc4ccccc4c3)cc2)cc1C(=O)Nc1cc(C(=O)NCCN2CCOCC2)n(C)c1	2.3	
	16	4 (≈ 2.56 µg/mL)	8 (≈ 5.12 µg/mL)	COc1ccc(/C=C/c2ccc(C(=O)Nc3cc(C(=O)Nc4cc(C(=O)NCCN5CCOCC5)n(C(C)C)c4)n(C)c3)nc2)cc1	8.5	
	15	< 1	2 (≈ 1.35 µg/mL)	CCC(C)n1cc(NC(=O)c2ccc(/C=C/c3cnc4ccccc4c3)cc2)cc1C(=O)Nc1cc(C(=O)NCCN2CCOCC2)n(C)c1 (stereo not given)	2.9	
10				COc1cccc(C(=O)Nc2ccc(C(=O)Nc3cc(C(=O)Nc4cc(C(=O)NCCN5CCOCC5)n(C)c4)n(C)c3)cc2)c1		
				COc1cccc(/C=C/c2ccc(C(=O)Nc3cc(C(=O)Nc4cc(C(=O)NCCN5CCOCC5)n(C)c4)n(C)c3)cc2)c1		MIC [1]: 12.5 µM (≈ 7.63 µg/mL); MIC [3]: 25 µM (≈ 15.3 µg/mL); MIC [4]: 6.25 µM (≈ 3.82 µg/mL); MIC [5]: 50 µM (≈ 30.5 µg/mL); MIC [6]: 100 µM (≈ 61.1 µg/mL)
	16	8 (≈ 5.23 µg/mL)	31 (≈ 20.3 µg/mL)	CCC(C)n1cc(NC(=O)c2ccc(/C=C/c3ccc(OC)cc3)cn2)cc1C(=O)Nc1cc(C(=O)NCCN2CCOCC2)n(C)c1 (stereo not given)	3.2	
	13	16 (≈ 10.5 µg/mL)	16 (≈ 10.5 µg/mL)	CCC(C)n1cc(NC(=O)c2cc(NC(=O)c3ccc(/C=C/c4ccc(OC)cc4)cn3)cn2C)cc1C(=O)NCCN1CCOCC1 (stereo not given)	2.8	
8				CN(C)c1ccc(/N=N/c2ccc(C(=O)Nc3cc(C(=O)Nc4cc(C(=O)NCCN5CCOCC5)n(C)c4)n(C)c3)cc2)cc1		
	16			COc1ccc(/C=C/c2ccc(C(=O)Nc3cc(C(=O)Nc4cc(C(=O)NCCN5CCOCC5)n(C)c4)n(C)c3)nc2)cc1		
	19	16 (≈ 10.2 µg/mL)	8 (≈ 5.12 µg/mL)	COc1ccc(/C=C/c2ccc(C(=O)Nc3cc(C(=O)Nc4cc(C(=O)NCCN5CCOCC5)n(C)c4)n(C(C)C)c3)nc2)cc1	6.7	
	10	< 1	2 (≈ 1.32 µg/mL)	CC(C)n1cc(NC(=O)c2cc(NC(=O)c3ccc(/C=C/c4cnc5ccccc5c4)cc3)cn2C)cc1C(=O)NCCN1CCOCC1	0.8	
